Test results reported in patent publication US20190210973A1, “COMPOUNDS AND METHODS FOR TREATMENT OF CYSTIC FIBROSIS” (The Curators of the University of Missouri, priority 2018, published 2019).
Where “and” joins values, the source holds several entries; their conditions need not be identical. Equal entries are not always repeated. Entries after “also recorded” stand apart in the source; their conditions may differ.

Molecular target: delF508-CFTR (Homo sapiens, UniProt P13569, DEL508-508)
Assay: Western blot of delF508-CFTR membrane (surface) expression, Band C
Assay type: cell-based
Parameters: delF508 stably-transfected C127 cells were cultured in DMEM with 10% FBS in 6-well plates; expressed in transfected cells; host or cells: C127 cells stably expressing delF508-CFTR
Details: for influence on the effect of Lumacaftor (VX-809) on membrane expression of delF508-CFTR (words): added to 3 μM VX-809
Source text: The amount of CFTR proteins in the cell membrane can be determined with Western blot analysis. Like all membrane proteins in the cell, the CFTR protein is synthesized in the endoplasmic reticulum (ER), translocated to the Golgi apparatus for glycosylation before trafficked to the plasma membrane. Because of the addition of complex sugar molecules to CFTR, the molecular weight of “mature” or post-Golgi CFTR in the plasma membrane is higher than that of newly synthesized proteins in the ER. Thus, in Western blot, it is possible to discern two distinct bands: band C representing high molecular weight, mature CFTR, and band B low molecular weight, immature CFTR. While wild-type proteins are present mostly as band C, Class II disease-associated mutations such as delF508 causes a drastic diminution of band C, resulting in an effective decrease of N in the formula N×Po×i. The effects of the reagents (or CFTR correctors) that enhance band C can thus be quantitatively assessed with the Western blot analysis. By the same token, any interactions between different compounds, with positive or negative impact on band C, can be determined with this assay.
Western blot experiments were carried out in both transient expression system (CHO cells) and a stable cell line (C127 cells). CHO cells, grown in 35 mm dishes, were transfected with delF508-CFTR construct in pcDNA plasmids using X-tremeGENE (Roche). Six hours after transfection, tested compounds were added to the medium. In case of delF508-CFTR-expressing stable C127 cells, compounds were added to the medium at about 30% confluence. In both cases, cells were lysed 18 hours post drug treatment using 1×SDS loading buffer. Cell lysates were sheared by pushed through 18G needles. Whole cell lysate were separated in 4˜20% gradient gels (Bio-Rad Laboratories) and transferred onto nitrocellulose membranes. The membranes were blocked with 5% milk in TBST buffer (20 mM Tris, 137 mM NaCl, 0.1% Tween 20) at 4° C. overnight. The membranes were then probed with anti-CFTR antibody (AB596 from the Cystic Fibrosis Foundation) and anti-vimentin antibody as a control (Santa Cruz Biotechnology) at room temperature for two hours. The membranes were washed with TBST five times and then incubated with anti-mouse IgG, HRP-linked antibody (Cell Signaling Technology) at room temperature for one hour. The membranes were washed three times with TBST and developed with chemiluminescence reagent (Thermo Scientific). The luminescence was detected and quantified by a Molecular Image Chemi Doc (Bio-Rad Laboratories).
For Western blotting experiments, delF508 stably-transfected C127 cells were cultured in DMEM with 10% FBS in 6-well plates. Different tested compounds were added to the culture medium within 24 hours of passage to the desired concentration. Cells were lysed 18 hours post drug treatment using 1×SDS loading buffer. Cell lysates were sheared by pushed through 18G needles. Whole cell lysates were separated in 4-20% gradient gels (Bio-Rad Laboratories) and transferred onto nitrocellulose membranes. The membranes were blocked with 5% milk in TBST buffer (20 mM Tris, 137 mM NaCl, 0.1% Tween 20) at 4° C. overnight. The membranes were then probed with anti-CFTR antibody (AB660 from CFTR foundation) and anti-vimentin antibody as a loading control (Santa Cruz Biotechnology) at room temperature for two hours. The membranes were washed with TBST five times and then incubated with anti-mouse IgG, HRP linked antibody (Cell Signaling Technology) at room temperature for one hour. The membranes were washed three times with TBST and developed with chemiluminescence reagent (Thermo Scientific). The luminescence was detected by a Molecular Image Chemi Doc (Bio-Rad Laboratories). […]

delF508-CFTR, sequence (P13569 with tags, fused parts or gaps DEL508-508): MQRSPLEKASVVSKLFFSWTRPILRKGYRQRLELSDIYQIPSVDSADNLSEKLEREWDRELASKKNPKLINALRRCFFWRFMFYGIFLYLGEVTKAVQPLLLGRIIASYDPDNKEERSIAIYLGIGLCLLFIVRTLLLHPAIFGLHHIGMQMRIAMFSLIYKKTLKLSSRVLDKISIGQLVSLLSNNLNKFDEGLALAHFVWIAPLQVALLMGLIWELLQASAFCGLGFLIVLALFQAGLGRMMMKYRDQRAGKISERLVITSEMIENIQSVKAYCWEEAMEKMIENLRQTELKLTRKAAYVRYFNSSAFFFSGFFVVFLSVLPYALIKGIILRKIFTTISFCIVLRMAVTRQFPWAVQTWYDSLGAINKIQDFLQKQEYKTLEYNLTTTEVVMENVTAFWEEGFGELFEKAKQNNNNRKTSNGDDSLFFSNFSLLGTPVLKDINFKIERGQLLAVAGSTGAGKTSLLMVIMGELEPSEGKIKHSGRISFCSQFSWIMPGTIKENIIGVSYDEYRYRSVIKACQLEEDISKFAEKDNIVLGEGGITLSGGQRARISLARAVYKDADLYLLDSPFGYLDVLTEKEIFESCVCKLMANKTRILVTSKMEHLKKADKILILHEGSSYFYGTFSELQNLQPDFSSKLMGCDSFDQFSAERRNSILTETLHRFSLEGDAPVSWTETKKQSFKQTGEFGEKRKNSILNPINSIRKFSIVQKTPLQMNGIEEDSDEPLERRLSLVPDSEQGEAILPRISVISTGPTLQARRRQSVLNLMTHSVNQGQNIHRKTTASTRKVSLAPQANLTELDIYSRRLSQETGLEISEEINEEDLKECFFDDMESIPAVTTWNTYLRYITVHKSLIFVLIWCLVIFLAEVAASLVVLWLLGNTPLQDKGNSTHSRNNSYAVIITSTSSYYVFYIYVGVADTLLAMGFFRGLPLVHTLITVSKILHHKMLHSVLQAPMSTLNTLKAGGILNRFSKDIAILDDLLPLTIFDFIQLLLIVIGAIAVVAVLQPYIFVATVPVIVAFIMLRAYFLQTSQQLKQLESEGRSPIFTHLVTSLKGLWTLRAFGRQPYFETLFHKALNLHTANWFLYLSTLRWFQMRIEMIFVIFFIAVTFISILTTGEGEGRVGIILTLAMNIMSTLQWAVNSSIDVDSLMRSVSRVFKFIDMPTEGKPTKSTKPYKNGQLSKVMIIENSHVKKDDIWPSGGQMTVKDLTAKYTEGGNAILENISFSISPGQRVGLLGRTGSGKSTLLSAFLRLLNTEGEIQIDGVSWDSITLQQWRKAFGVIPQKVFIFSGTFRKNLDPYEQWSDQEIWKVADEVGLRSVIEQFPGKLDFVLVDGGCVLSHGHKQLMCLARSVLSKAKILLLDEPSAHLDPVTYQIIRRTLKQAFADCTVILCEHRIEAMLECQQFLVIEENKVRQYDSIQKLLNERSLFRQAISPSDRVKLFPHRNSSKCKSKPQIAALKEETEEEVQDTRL

## CC(C)(C)c1cc(C(C)(C)C)c(NC(=O)c2c[nH]c3ccccc3c2=O)cc1O [VX-770, Ivacaftor, reference compound]
3 μM VX-809 + 1 μM VX-770, C127 cells, lane 6, one value per experiment series
  surface expression of delF508-CFTR (Band C, corrected to vimentin, DMSO = 100): 334 ± 81, N = 5 and 182 ± 57, N = 4 and 172 ± 50, N = 4
  influence on the effect of Lumacaftor (VX-809) on membrane expression of delF508-CFTR (words): dampens this effect; also recorded: dampens the effect of VX-809
Listed as Ivacaftor
  influence on the effect of Lumacaftor (VX-809) on membrane expression of delF508-CFTR (words): diminishes the effect of Lumacaftor
